Assay results from the supplement of paper PMC10307832.

Assays:
Assay in all cases: relative viability (nuclei count vs DMSO), 5 days (fraction); higher = more cells survive
IMD-0354 = compound: O=C(Nc1cc(C(F)(F)F)cc(C(F)(F)F)c1)c1cc(Cl)ccc1O [IMD-0354]
In short: (§1)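 Cells of lung cancer lines were placed in 1536-well plates and kept overnight at 37 °C. Pinning then delivered five library-drug doses (not always all listed), spaced by √10, onto plates anchored with vehicle, and the cells were left 5 days without changing medium. One step fixed, permeabilised and stained them with Hoechst, and MetaXpress counted nuclei in 4× images. Viability, as a median over plates, is treated-well nuclei divided by vehicle-well nuclei, with acceptance only at control CV below 25% and at least one doubling.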

CX-5461 = compound: Cc1cnc(CNC(=O)c2c(=O)c3ccc(N4CCCN(C)CC4)nc3n3c2sc2ccccc23)cn1 [CX-5461]
In short: as §1

IMD-0354 + Foretinib = compound: O=C(Nc1cc(C(F)(F)F)cc(C(F)(F)F)c1)c1cc(Cl)ccc1O [IMD-0354] + COc1cc2c(Oc3ccc(NC(=O)C4(C(=O)Nc5ccc(F)cc5)CC4)cc3F)ccnc2cc1OCCCN1CCOCC1 [Foretinib] (partner 0.25 µM)
In short: (§2)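 Relative viability divides the nuclei count in treated wells by that in vehicle wells. Lung cancer cell lines were seeded in 1536-well plates, dosed by pin tool the next day, and fixed and stained after 5 days in one step with final 0.05% Triton X-100, 1% formaldehyde and 1 ug/ml Hoechst. Dosing was a single drug or a fixed anchor-drug dose plus five library-drug doses (not always all listed) in √10 steps, and values are medians of duplicate plates imaged at 4×.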

IMD-0354 + Pictilisib = compound: O=C(Nc1cc(C(F)(F)F)cc(C(F)(F)F)c1)c1cc(Cl)ccc1O [IMD-0354] + CS(=O)(=O)N1CCN(Cc2cc3nc(-c4cccc5[nH]ncc45)nc(N4CCOCC4)c3s2)CC1 [Pictilisib] (partner 1 µM)
In short: as §2

**Q.** With UMC-11 as the cell line, how does the relative viability (IMD-0354; 0.04 µM) read?
**A.** 1.1

**Q.** And the relative viability (IMD-0354; 0.1265 µM)?
**A.** 1.04

**Q.** And the relative viability (IMD-0354; 0.4 µM)?
**A.** 0.551

**Q.** And the relative viability (IMD-0354; 1.265 µM)?
**A.** 0.224

**Q.** And the relative viability (IMD-0354; 4 µM)?
**A.** 0.271

**Q.** What about the relative viability (CX-5461; 0.01 µM) of the same cell line?
**A.** 1.09

**Q.** What about the relative viability (CX-5461; 0.03162 µM) of the same cell line?
**A.** 0.994

**Q.** What about the relative viability (CX-5461; 0.1 µM) of the same cell line?
**A.** 0.928

**Q.** What about the relative viability (CX-5461; 0.3162 µM) of the same cell line?
**A.** 0.909

**Q.** And the relative viability (CX-5461; 1 µM)?
**A.** 0.382

**Q.** And the relative viability (IMD-0354 + Foretinib; first compound 0.04 µM)?
**A.** 1.07

**Q.** What about the relative viability (IMD-0354 + Foretinib; first compound 0.1265 µM) of the same cell line?
**A.** 1.03

**Q.** What about the relative viability (IMD-0354 + Foretinib; first compound 0.4 µM) of the same cell line?
**A.** 0.431

**Q.** And the relative viability (IMD-0354 + Foretinib; first compound 1.265 µM)?
**A.** 0.235

**Q.** What about the relative viability (IMD-0354 + Foretinib; first compound 4 µM) of the same cell line?
**A.** 0.235

**Q.** What about the relative viability (IMD-0354 + Pictilisib; first compound 0.04 µM) of the same cell line?
**A.** 0.939

**Q.** What about the relative viability (IMD-0354 + Pictilisib; first compound 0.1265 µM) of the same cell line?
**A.** 0.868

**Q.** What about the relative viability (IMD-0354 + Pictilisib; first compound 0.4 µM) of the same cell line?
**A.** 0.542

**Q.** And the relative viability (IMD-0354 + Pictilisib; first compound 1.265 µM)?
**A.** 0.187

**Q.** What about the relative viability (IMD-0354 + Pictilisib; first compound 4 µM) of the same cell line?
**A.** 0.223
